Reference: patent US20260167623A1 (NIKANG THERAPEUTICS, INC., priority 2022, published 2026)

Target: T1, CDK2 (Homo sapiens, UniProt P24941)
T1 construct: High-Throughput Measurement of Cellular Endogenous CDK2; endogenous in cells; host or cells: OVCAR3
Experiment: Inhibition of CDK2: phospho-Rb (S807/811) HTRF measurement in OVCAR3 cells, 24 h
Assay type: cell-based
Conditions: 24 h compound treatment, read-out: pRB_OVCAR3_24h
Summary of the method: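 IC50 came from a four-parameter fit of DMSO-normalized TR-FRET ratios (665/620 nm) reporting phospho-Rb S807/811. Lysates were taken from OVCAR3 cultures treated 24 h with compound (0.3 to 10,000 nM) and incubated 4 h at room temperature with the antibody pair.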

Compound | IC50 [nM]
Cn1nc(N2CCC(=O)NC2=O)c2ccc(C3CN(Cc4cccc(S(=O)(=O)N5CCC(Nc6ncc(Cl)cn6)CC5)c4)C3)cc21 [Example 56, 1-(6-(1-(3-((4-((5-chloropyrimidin-2-yl)amino)piperidin-1-yl)sulfonyl)benzyl)-azetidin-3-yl)-1-methyl-1H-indazol-3-yl)dihydropyrimidine-2,4(1H,3H)-dione] | 500 to 2500
CN(C)c1cnc(NC2CCN(S(=O)(=O)c3cccc(CN4CCC(c5ccc6c(N7CCC(=O)NC7=O)nn(C)c6c5)CC4)c3)CC2)nc1 [Example 70, 1-(6-(1-(3-((4-((5-(dimethylamino)-pyrimidin-2-yl)amino)piperidin-1-yl)-sulfonyl)benzyl)piperidin-4-yl)-1-methyl-1H-indazol-3-yl)dihydropyrimidine-2,4(1H,3H)-dione] | > 2500
Cn1nc(N2CCC(=O)NC2=O)c2ccc(C3CCN(CC4CCN(c5cccc(S(=O)(=O)N6CCC(Nc7ncc(F)cn7)CC6)c5)CC4)CC3)cc21 [Example 193, 1-(6-(1-((1-(3-((4-((5-fluoropyrimidin-2-yl)amino)piperidin-1-yl)sulfonyl)phenyl)piperidin-4-yl)methyl)piperidin-4-yl)-1-methyl-1H-indazol-3-yl)dihydropyrimidine-2,4(1H,3H)-dione] | 500 to 2500
Cn1nc(N2CCC(=O)NC2=O)c2ccc(C3CCN(C(c4cccc(S(=O)(=O)N5CCC(Nc6ncc(Cl)cn6)CC5)c4)C(F)F)CC3)cc21 (stereo not shown) [Example 30, 1-(6-(1-(1-(3-((4-((5-chloropyrimidin-2-yl)amino)piperidin-1-yl)sulfonyl)phenyl)-2,2-difluoroethyl)piperidin-4-yl)-1-methyl-1H-indazol-3-yl)dihydropyrimidine-2,4(1H,3H)-dione] | 500 to 2500
Cn1nc(N2CCC(=O)NC2=O)c2ccc(C3CCN(CC4CCN(c5cccc(S(=O)(=O)N6CC7(CC(Nc8ncc(C(F)(F)F)cn8)C7)C6)c5)CC4)CC3)cc21 [Example 172, 1-(1-methyl-6-(1-((1-(3-((6-((5-(trifluoromethyl)pyrimidin-2-yl)amino)-2-azaspiro[3.3]heptan-2-yl)sulfonyl)phenyl)piperidin\-4-yl)methyl)piperidin-4-yl)-1H-indazol-3-yl)dihydropyrimidine-2,4(1H,3H)-dione] | > 2500
Cn1nc(N2CCC(=O)NC2=O)c2ccc(C3CCN(CC4CCN(c5cccc(S(=O)(=O)c6ccc(Nc7ncc(C(F)(F)F)cn7)cc6)c5)CC4)CC3)cc21 [Example 245, 1-(1-methyl-6-(1-((1-(3-((4-((5-(trifluoromethyl)pyrimidin-2-yl)amino)phenyl)sulfonyl)phenyl)piperidin-4-yl)methyl)piperidin-4-yl)-1H-indazol-3-yl)dihydropyrimidine-2,4(1H,3H)-dione] | > 2500
Cn1nc(N2CCC(=O)NC2=O)c2ccc(C3CCN(CC4CCN(c5cccc(S(=O)(=O)N6CCC(Nc7ncc(CC(F)(F)F)cn7)CC6)c5)CC4)CC3)cc21 [Example 243, 1-(1-methyl-6-(1-((1-(3-((4-((5-(2,2,2-trifluoroethyl)pyrimidin-2-yl)amino)piperidin-1-yl)sulfonyl)phenyl)piperidin-4-yl)methyl)piperidin-4-yl)-1H-indazol-3-yl)dihydropyrimidine-2,4(1H,3H)-dione] | 500 to 2500
Cn1nc(N2CCC(=O)NC2=O)c2ccc(C3CCN(CC4CCN(c5cccc(S(=O)(=O)N6[C@@H]7CC[C@H]6CC(Nc6ncc(Cl)cn6)C7)c5)CC4)CC3)cc21 (stereo partly drawn) [Example 227, 1-(6-(1-((1-(3-(((1R,5S)-3-((5-chloropyrimidin-2-yl)amino)-8-azabicyclo[3.2.1]octan-8-yl)sulfonyl)phenyl)piperidin-4-yl)methyl)piperidin-4-yl)-1-methyl-1H-indazol-3-yl)dihydropyrimidine-2,4(1H,3H)-dione] | 500 to 2500
CO[C@@H]1CN(S(=O)(=O)c2cccc(N3CCC(CN4CCC(c5ccc6c(N7CCC(=O)NC7=O)nn(C)c6c5)CC4)CC3)c2)CC[C@@H]1Nc1ncc(Cl)cn1 [Example 218, 1-(6-(1-((1-(3-(((3R,4S)-4-((5-chloropyrimidin-2-yl)amino)-3-methoxypiperidin-1-yl)sulfonyl)phenyl)piperidin-4-yl)methyl)piperidin-4-yl)-1-methyl-1H-indazol-3-yl)dihydropyrimidine-2,4(1H,3H)-dione] | > 2500
O=C1CCC(N2Cc3cc(C4CN(Cc5cccc(S(=O)(=O)N6CCC(Nc7ncc(Cl)cn7)CC6)c5)C4)ccc3C2=O)C(=O)N1 (stereo not shown) [Example 50, 3-(5-(1-(3-((4-((5-chloropyrimidin-2-yl)amino)piperidin-1-yl)sulfonyl)benzyl)-azetidin-3-yl)-1-oxoisoindolin-2-yl)piperidine-2,6-dione] | 500 to 2500
Cn1nc(N2CCC(=O)NC2=O)c2ccc(N3CCC(NCc4cccc(S(=O)(=O)N5CCC(Nc6ncc(C(F)(F)F)cn6)CC5)c4)CC3)cc21 [Example 85, 1-(1-methyl-6-(4-((3-((4-((5-(trifluoro-methyl)pyrimidin-2-yl)amino)piperidin-1-yl)sulfonyl)benzyl)amino)piperidin-1-yl)-1H-indazol-3-yl)dihydropyrimidine-2,4(1H,3H)-dione] | 500 to 2500
CC(Cc1cccc(S(=O)(=O)N2CCC(Nc3ncc(Cl)cn3)CC2)c1)CN1CCN(c2cc3c(cc2F)C(=O)N(C2CCC(=O)NC2=O)C3)CC1 (stereo not shown) [Example 97, 3-(5-(4-(3-(3-((4-((5-chloropyrimidin-2-yl)amino)piperidin-1-yl)sulfonyl)phenyl)-2-methylpropyl)piperazin-1-yl)-6-fluoro-1-oxoisoindolin-2-yl)piperidine-2,6-dione] | 500 to 2500

Now from value to compound:

IC50 [nM] | Compound
100 to 500 | Cn1nc(N2CCC(=O)NC2=O)c2ccc(N3CCN(Cc4cccc(S(=O)(=O)N5CCC(Nc6ncc(C(F)(F)F)cn6)CC5)c4)CC3)cc21 [Example 12, 1-(1-methyl-6-(4-(3-((4-((5-(trifluoro-methyl)pyrimidin-2-yl)amino)piperidin-1-yl)sulfonyl)benzyl)piperazin-1-yl)-1H-indazol-3-yl)dihydropyrimidine-2,4(1H,3H)-dione]
100 to 500 | O=C1CCC(Nc2ccc(N3CCN(Cc4cccc(S(=O)(=O)N5CCC(Nc6ncc(C(F)(F)F)cn6)CC5)c4)CC3)cc2)C(=O)N1 (stereo not shown) [Example 78, 3-((4-(4-(3-((4-((5-(trifluoromethyl)-pyrimidin-2-yl)amino)piperidin-1-yl)sulfonyl)benzyl)piperazin-1-yl)phenyl)amino) piperidine-2,6-dione]
1 to 100 | Cn1nc(N2CCC(=O)NC2=O)c2ccc(C3CCN(Cc4ccc(-c5cccc(S(=O)(=O)N6CCC(Nc7ncc(Cl)cn7)CC6)c5)cc4)CC3)cc21 [Example 122]
100 to 500 | O=C1CCC(N2Cc3cc(N4CCN(CC5CCN(c6cccc(S(=O)(=O)N7CCC(Nc8ncc(C(F)(F)F)cn8)CC7)c6)CC5)CC4)c(F)cc3C2=O)C(=O)N1 (stereo not shown) [Example 101, 3-(6-fluoro-1-oxo-5-(4-((1-(3-((4-((5-(trifluoromethyl)pyrimidin-2-yl)amino)-piperidin-1-yl)sulfonyl)phenyl)piperidin-4-yl)methyl)piperazin-1-yl)isoindolin-2-yl)piperidine-2,6-dione]
100 to 500 | Cn1nc(N2CCC(=O)NC2=O)c2ccc(C3CCN(C[C@@H]4CCCN(c5cccc(S(=O)(=O)N6CCC(Nc7ncc(OC(F)F)cn7)CC6)c5)C4)CC3)cc21 [Example 257, (S)-1-(6-(1-((1-(3-((4-((5-(difluoromethoxy)pyrimidin-2-yl)amino)piperidin-1-yl)sulfonyl)phenyl)piperidin-3-yl)methyl)piperidin-4-yl)-1-methyl-1H-indazol-3-yl)dihydropyrimidine-2,4(1H,3H)-dione]
100 to 500 | Cn1nc(N2CCC(=O)NC2=O)c2ccc(C3CCN(Cc4cccc(S(=O)(=O)N5CCC(Nc6ncc(OC(F)F)cn6)CC5)c4)CC3(F)F)cc21 (stereo not shown) [Example 75, 1-(6-(1-(3-((4-((5-(difluoromethoxy)-pyrimidin-2-yl)amino)piperidin-1-yl)sulfonyl)benzyl)-3,3-difluoropiperidin-4-yl)-1-methyl-1H-indazol-3-yl)dihydropyrimidine-2,4(1H,3H)-dione]
1 to 100 | Cn1nc(N2CCC(=O)NC2=O)c2ccc(C3CCN(CC4CN(c5cccc(S(=O)(=O)N6CCC(Nc7ncc(Cl)cn7)CC6)c5)C4)CC3)cc21 [Example 129, 1-(6-(1-((1-(3-((4-((5-chloropyrimidin-2-yl)amino)piperidin-1-yl)sulfonyl)phenyl)-azetidin-3-yl)methyl)piperidin-4-yl)-1-methyl-1H-indazol-3-yl)dihydropyrimidine-2,4(1H,3H)-dione]
100 to 500 | Cn1nc(N2CCC(=O)NC2=O)c2ccc(N3CCN(CC4CCN(c5cccc(S(=O)(=O)N6CCC(Nc7ncc(Cl)cn7)CC6)c5)CC4)CC3(C)C)cc21 [Example 159, 1-(6-(4-((1-(3-((4-((5-chloropyrimidin-2-yl)amino)piperidin-1-yl)sulfonyl)phenyl)piperidin-4-yl)methyl)-2,2-dimethylpiperazin-1-yl)-1-methyl-1H-indazol-3-yl)dihydropyrimidine-2,4(1H,3H)-dione]
100 to 500 | O=C1CCC(N2Cc3cc(C4CN(Cc5cccc(S(=O)(=O)N6CCC(Nc7ncc(C(F)(F)F)cn7)CC6)c5)C4)ccc3C2=O)C(=O)N1 (stereo not shown) [Example 48, 3-(1-oxo-5-(1-(3-((4-((5-(trifluoromethyl)-pyrimidin-2-yl)amino)piperidin-1-yl)sulfonyl)benzyl)azetidin-3-yl)isoindolin-2-yl)piperidine-2,6-dione]
100 to 500 | Cn1nc(N2CCC(=O)NC2=O)c2ccc(C3CCN(CC4CCN(c5cc(C#N)cc(S(=O)(=O)N6CCC(Nc7ncc(Cl)cn7)CC6)c5)CC4)CC3)cc21 [Example 160, 3-((4-((5-chloropyrimidin-2-yl)amino)piperidin-1-yl)sulfonyl)-5-(4-((4-(3-(2,4-dioxotetrahydropyrimidin-1(2H)-yl)-1-methyl-1H-indazol-6-yl)piperidin-1-yl)methyl)piperidin-1-yl)benzonitrile 2,2,2-trifluoroacetate]
